The record followed here is US20040132619A1, “Selective substituted aryl ketone and safener based herbicides” (priority 2001, published 2004).

One data set relates to wheat cv. “Orestis”. The data set is described as follows: Post-emergence test/greenhouse, damage to wheat. In kind it is in vivo. Here is the method: (§1) The active compound or safener components are in each case dissolved in a little solvent and then—if appropriate after addition of an emulsifier—diluted with water to the desired concentration. […] Acetone and N,N-dimethylformamide are used as preferred solvents. The test plants are grown under controlled conditions (temperature, light, atmospheric humidity) in a greenhouse. […] After spraying, the pots with the test plants are kept in a greenhouse chamber under controlled conditions (temperature, light, atmospheric humidity) until the test has ended. […] The figures denote: 0% =no damage (like untreated control) […] Active compounds, application rates, test plants and results are shown in the tables below, the terms being used in the tables being as defined below: wheat=wheat cv. “Orestis”, barley=barley cv. “Coronar” a.i.=active ingredient=active compound/safener

A short description of data set [1]: logP (physical data, Table 1). In kind it is physicochemical. The conditions noted are these: footnote a) not given.
A further data set relates to barley cv. “Coronar”. Put plainly: Post-emergence test/greenhouse, damage to barley. In kind it is in vivo. As for the experimental part: as §1
Another data set relates to maize cv. “Pioneer”. Put plainly: Post-emergence test/greenhouse, damage to maize. The format is in vivo. Conditions: Table A3. Here is the method: (§2) The active compound or safener components are in each case dissolved in a little solvent and then—if appropriate after addition of an emulsifier—diluted with water to the desired concentration. Preferably, an aqueous spray liquor is prepared using 0.1% of the additive Renex-36. Acetone and N,N-dimethylformamide are used as preferred solvents.
(§3) The test plants are grown under controlled conditions (temperature, light, atmospheric humidity) in a greenhouse. The test plants are sprayed when they have reached a height of 5-15 cm. The concentration of the spray liquor is chosen such that the particular amounts of active compound desired are applied in 500 l of water/ha.
(§4) After spraying, the pots with the test plants are kept in a greenhouse chamber under controlled conditions (temperature, light, atmospheric humidity) until the test has ended. About three weeks after the application, the degree of damage to the crop plants is rated in % damage in comparison to the development of the untreated control.
(§5) 0% =no damage (like untreated control)
(§6) 100% =total destruction/damage
(§7) Active compounds, application rates, test plants and results are shown in the tables below, the terms being used in the tables being as defined below:
maize=maize cv. “Pioneer”
(§8) a.i.=active ingredient=active compound/safener

The subject of a further data set is Amaranthus. Put plainly: Post-emergence test/greenhouse, damage to Amaranthus. The format is in vivo. The conditions noted are these: Table A3. Here is the method:
as §2, §3, §4, §5, §6, §7, §8

A further data set concerns Chenopodium. Put plainly: Post-emergence test/greenhouse, damage to Chenopodium. In kind it is in vivo. Conditions: Table A3. As for the experimental part: as §2, §3, §4, §5, §6, §7, §8
The mark [2] stands for this setting: Table A1: sown 31 March, application 19 April (20 days), 125 g of a.i./ha.
Setting [3] is: Table A1: sown 31 March, application 19 April (20 days), 250 g of a.i./ha.
Where [4] appears, read: Table A1: sown 31 March, application 19 April (20 days), 500 g of a.i./ha.
[5] abbreviates: Table A2: sown 12 April, application 10 May (4 weeks), 125 g of a.i./ha.
Setting [6] is: Table A2: sown 12 April, application 10 May (4 weeks), 250 g of a.i./ha.
Where [7] appears, read: Table A2: sown 12 April, application 10 May (4 weeks), 500 g of a.i./ha.

Molecules are shown by their SMILES.

Consider `CSc1nn(Cc2cc(C(F)(F)F)ccc2C(=O)C2C(=O)CCCC2=O)c(=O)n1C` [Example I-15], for which the “Damage Wheat (in %) (5 days)” value in the data set on wheat cv. “Orestis” (setting [2]) is on record as 30%; with wheat cv. “Orestis” (setting [3]), 40%; in the data set on wheat cv. “Orestis” (setting [4]), 40%; with wheat cv. “Orestis” (setting [5]) it was 20%; with wheat cv. “Orestis” (setting [6]) it was 35%; with wheat cv. “Orestis” (setting [7]), 35%. Further, the “Damage Wheat (in %) (20 days)” value in the data set with wheat cv. “Orestis” (setting [2]) is reported as 20%; in the data set with wheat cv. “Orestis” (setting [3]), 20%; in the data set with wheat cv. “Orestis” (setting [4]), 30%; in the data set on wheat cv. “Orestis” (setting [5]) it was 30%; with wheat cv. “Orestis” (setting [6]) it was 40%; in the data set with wheat cv. “Orestis” (setting [7]), 50%. Also, the logP entry in data set [1] is reported as “logP = 2.59^a)”. The “Damage Barley (in %) (5 days)” value with barley cv. “Coronar” (setting [2]) is given as 40%; in the data set with barley cv. “Coronar” (setting [3]), 50%; in the data set with barley cv. “Coronar” (setting [4]) it was 50%; in the data set on barley cv. “Coronar” (setting [5]), 35%; in the data set with barley cv. “Coronar” (setting [6]) it was 35%; with barley cv. “Coronar” (setting [7]), 35%. The “Damage Barley (in %) (20 days)” value is reported as 10% in the data set with barley cv. “Coronar” (setting [2]); 15% in the data set on barley cv. “Coronar” (setting [3]); 20% with barley cv. “Coronar” (setting [4]); 25% with barley cv. “Coronar” (setting [5]); 30% in the data set on barley cv. “Coronar” (setting [6]); 50% in the data set on barley cv. “Coronar” (setting [7]).

As to `CCN1CCCN(Cc2c(S(C)(=O)=O)ccc(C(=O)C3C(=O)CCCC3=O)c2Cl)C1=O` [Example I-12], the logP result in data set [1] is listed as “logP = 1.96^a)”.

With `COc1nn(Cc2cc(C(F)(F)F)ccc2C(=O)C2C(=O)CCCC2=O)c(=O)n1C` [Example I-5], the “Damage Maize (in %)” value in the data set with maize cv. “Pioneer” (30 g of a.i./ha) stood at 30%; in the data set with maize cv. “Pioneer” (60 g of a.i./ha) it was 60%; in the data set with maize cv. “Pioneer” (125 g of a.i./ha), 70%. Further, the “Damage Amaranthus (in %)” value with Amaranthus (30 g of a.i./ha), with Amaranthus (60 g of a.i./ha) and in the data set with Amaranthus (125 g of a.i./ha) was 100% in each case. For the same compound, the logP entry in data set [1] is “logP = 2.35^a)”. The “Damage Chenopodium (in %)” value with Chenopodium (30 g of a.i./ha), with Chenopodium (60 g of a.i./ha) and with Chenopodium (125 g of a.i./ha) was 100% in each case.

Regarding `CN1CCCN(Cc2c(S(C)(=O)=O)ccc(C(=O)C3C(=O)CCCC3=O)c2Cl)C1=O` [Example I-11], the logP result in data set [1] is given as “logP = 1.73^a)”.

On to `COc1c(C(=O)c2cnoc2C2CC2)ccc(Cl)c1CN1CCN(C)C1=O` [Example I-14], for which the logP result in data set [1] was “logP = 2.46^a)”.
